Laboratory results taken from patent publication US11464780B2, “Pyrazolopyrimidine derivative and use thereof” (Simcere Pharmaceutical Co. Ltd., priority 2018, dated 2022).
Like-named read-outs stand apart in the source and are kept apart here.

Legend:
Ros1 = molecular target: T1, Ros1 (Homo sapiens, UniProt P08922); test: Kinase inhibitory activity (33P-ATP filter binding, Reaction Biology Corp.); format: biochemical; details: read-out: The half maximal inhibitory concentration IC50 on the kinases, Ros1
T1 construct: purchased Reaction Biology Corp. (contract assay)
Procedure: (§1) The mixture was incubated at room temperature for 20 minutes. To the reaction mixture was added a certain concentration of ^33P-ATP to initiate the reaction, and then the mixture was incubated at room temperature for 120 minutes. The radioactivities of the reactants were determined by the method of filter binding. The final kinase activity was expressed as the ratio of the remaining kinase activity in the test sample to the kinase activity in the DMSO control group. The dose-effect curve was fitted by GraphPad software and the IC50 was calculated.

TrkA = molecular target: T2, TrkA (Homo sapiens, UniProt P04629); test: as above; format: biochemical; details: read-out: The half maximal inhibitory concentration IC50 on the kinases, TrkA
T2 construct: purchased Reaction Biology Corp. (contract assay)
Procedure: as §1

TrkA-G595R = molecular target: T3, TrkA-G595R (Homo sapiens, UniProt P04629, G595R); test: as above; format: biochemical; details: read-out: The half maximal inhibitory concentration IC50 on the kinases, TrkA-G595R
T3 construct: purchased Reaction Biology Corp. (contract assay)
Procedure: as §1

TrkA-G667C = molecular target: T4, TrkA-G667C (Homo sapiens, UniProt P04629, G667C); test: as above; format: biochemical; details: read-out: The half maximal inhibitory concentration IC50 on the kinases, TrkA-G667C
T4 construct: purchased Reaction Biology Corp. (contract assay)
Procedure: as §1

TrkC = molecular target: T5, TrkC (Homo sapiens, UniProt Q16288); test: as above; format: biochemical; details: read-out: The half maximal inhibitory concentration IC50 on the kinases, TrkC
T5 construct: purchased Reaction Biology Corp. (contract assay)
Procedure: as §1

ALK = molecular target: T6, ALK (Homo sapiens, UniProt Q9UM73); test: as above; format: biochemical; details: read-out: The half maximal inhibitory concentration IC50 on the kinases, ALK
T6 construct: purchased Reaction Biology Corp. (contract assay)
Procedure: The inhibitory activities of the compounds on TrkA, TrkC, ALK, Ros1 and other kinases were determined by Reaction Biology Corp. To reaction buffer (20 mM Hepes (pH 7.5), 10 mM MgCl2, 1 mM EGTA, 0.02% Brij35, 0.02 mg/mL BSA, 0.1 mM Na3VO4, 2 mM DTT, 1% DMSO) were sequentially added a certain concentration of substrate, coenzyme factor, kinase and test compound (10 concentrations, 3-fold serial dilutions, DMSO at a final concentration of […]), and the mixture was mixed evenly. The mixture was incubated at room temperature for 20 minutes. To the reaction mixture was added a certain concentration of ^33P-ATP to initiate the reaction, and then the mixture was incubated at room temperature for 120 minutes. The radioactivities of the reactants were determined by the method of filter binding. The final kinase activity was expressed as the ratio of the remaining kinase activity in the test sample to the kinase activity in the DMSO control group. The dose-effect curve was fitted by GraphPad software and the IC50 was calculated.

[1] = molecular target: T7, Ba/F3 LMNA-NTRK1-WT stably transfected cell line (Homo sapiens, UniProt P04629); test: Cell proliferation inhibition (CellTiter-Glo); format: cell-based; details: 72 hours, read-out: The half maximal inhibitory concentration IC50 against cells, Ba/F3 LMNA-NTRK1-WT
T7 construct: fused on or other part: P02545 (Prelamin-A/C)
Procedure: Adenosine Tri-Phosphate (ATP) is an energy carrier shared by various life activities in nature, and is the smallest unit of energy storage and transfer. The CellTiter-Glo™ cell viability detection kit uses luciferase as the detection substance, and luciferase requires the participation of ATP during the process of luminescence. CellTiter-Glo™ reagent is added to cell culture medium, and the luminescent intensity is measured. The luminescent signal is directly proportional to the amount of ATP in the system, and ATP is positively related to the number of living cells. Therefore, by using the CellTiter-Glo kit to detect ATP content, cell proliferation can be detected. In this assay, the cell line is Ba/F3 LMNA-NTRK1-WT stably transfected cell line, with 5000 cells/well.
IC50 Determination Process:
1. Cell Culture and Inoculation
a) the cells in the logarithmic growth phase were harvested, and counted with a platelet counter. Trypan blue exclusion method was used to detect cell viability to ensure the cell viability was no less than 90%.
b) the cell concentration was adjusted; 90 μL of cell suspension was added respectively into a 96-well plate.
c) the cells in the 96-well plates was cultured under conditions of 37° C., 5% CO2 and 95% humidity overnight.
2. Drug Dilution and Administration
a) 10-fold drug solutions were prepared, the highest concentration was 10 μM, 9 concentrations, 3-fold diluted (refer to Appendix I). 10 μL of each drug solution was added to each well of the 96-well plate seeded with the cells in triplicate.
b) the cells in the 96-well plate added with the drug were cultured under conditions of 37° C., 5% CO2 and 95% humidity for 72 hours, and then CTG (cell proliferation) was performed.
a) CellTiter-Glo™ reagent was thawed, and the cell plate was equilibrated at room temperature for 30 minutes.
b) CellTiter-Glo™ reagent of a same volume was added to each well;
c) the cell plate was shaken on an orbital shaker for 5 minutes to lyse the cells.
d) the cell plate was placed at room temperature for 20 minutes to stabilize the luminescent signal.
e) the luminescent intensity was read.
GraphPad Prism 5.0 software was used to analyze the data, nonlinear S-curve regression was used to fit the data to obtain dose-effect curve, and IC50 value was calculated therefrom.

[2] = molecular target: T8, Ba/F3 LMNA-NTRK1-G595R stably transfected cell line (Homo sapiens, UniProt P04629, G595R, cells depend on it); test: Cell proliferation inhibition (CellTiter-Glo); format: cell-based; details: 72 hours, read-out: The half maximal inhibitory concentration IC50 against cells, Ba/F3 LMNA-NTRK1-G595R
T8 construct: fused on or other part: P02545 (Prelamin-A/C)

[3] = molecular target: T9, BaF3 ETV6-NTRK3-G623R stably transfected cell line (Homo sapiens, UniProt Q16288, G623R, cells depend on it); test: Cell proliferation inhibition (CellTiter-Glo); format: cell-based; details: 72 hours, read-out: The half maximal inhibitory concentration IC50 against cells, BaF3 ETV6-NTRK3-G623R
T9 construct: fused on or other part: P41212 (Transcription factor ETV6)

[4] = In vivo pharmacokinetic test in mice; design: species or system male CD-1 mice; details: for Cmax: read-out: Peak concentration Cmax; for Vd: read-out: Apparent volume of distribution Vd; for AUC(0-t): read-out: Area under the curve AUC0-last; for half-life: read-out: Half life T1/2 (converted); for bioavailability: read-out: Bioavailability F %; for Tmax: read-out: Time of peak concentration Tmax
Procedure: Experimental object: male CD-1 mice aged 7-9 weeks were used as the experimental animals, the LC/MS/MS method was used to determine the drug concentrations in plasma at different time points after single intravenous (IV) and intragastric (PO) administration of the compounds, in vivo pharmacokinetic behaviors of the compounds of the present disclosure in mice were studied, and pharmacokinetic characteristics thereof were evaluated. Drug preparation: The compounds were prepared into clear solutions with 5% DMSO+10% solutol+85% water as solvent for administration in IV (intravenous) group and PO (intragastric). The dose of the compounds: IV dose of 3 mg/kg, and PO dose of […].

[5] = In vivo cassette pharmacokinetic test in mice; design: species or system male CD-1 mice; details: cassette, mice; for Apparent clearance Cl: IV @ 1 mpk
Procedure: The dose of the compounds: […] PO dose of 3 mg/kg, and administration volume of 3 mL/kg.

[6] = test system: human colon cancer cell line KM12 subcutaneous xenograft tumor; test: In vivo efficacy, subcutaneous xenograft tumor of human colon cancer KM12; design: species or system BALB/c mouse; details: PO
Procedure: Experimental object: evaluation of the in vivo efficacy of test drugs such as WX002A on subcutaneous xenograft tumor of human colon cancer cell line KM12 cell in BALB/c mouse model.
Drug preparation: The compounds were all prepared into clear solutions with 5% DMSO+10% solutol+85% water as solvent for administration in the PO (intragastric) group.
Tumor measurement: the tumor diameters were measured with a vernier caliper twice a week. The calculation formula of tumor volume is: V=0.5×a×b^2, wherein a and b represent the long diameter and short diameter of the tumor, respectively. The anti-tumor efficacy of the compounds is evaluated by TGI (%). TGI (%) reflects tumor growth inhibition rate.
Statistical analysis: The statistical analysis was based on the relative tumor volume and tumor weight at the end of the experiment using SPSS software. One-way ANOVA was used to analyze the comparison between multiple groups. […] P<0.05 was considered to indicate significant difference.

[7] = male, CD-1, mouse, plasma, IV dose of 3 mg/kg
[8] = male, CD-1, mouse, plasma, PO dose of 10 mL/kg vs IV 3 mg/kg
[9] = male, CD-1, mouse, plasma, PO dose of 10 mL/kg

T2 sequence (P04629 33-796): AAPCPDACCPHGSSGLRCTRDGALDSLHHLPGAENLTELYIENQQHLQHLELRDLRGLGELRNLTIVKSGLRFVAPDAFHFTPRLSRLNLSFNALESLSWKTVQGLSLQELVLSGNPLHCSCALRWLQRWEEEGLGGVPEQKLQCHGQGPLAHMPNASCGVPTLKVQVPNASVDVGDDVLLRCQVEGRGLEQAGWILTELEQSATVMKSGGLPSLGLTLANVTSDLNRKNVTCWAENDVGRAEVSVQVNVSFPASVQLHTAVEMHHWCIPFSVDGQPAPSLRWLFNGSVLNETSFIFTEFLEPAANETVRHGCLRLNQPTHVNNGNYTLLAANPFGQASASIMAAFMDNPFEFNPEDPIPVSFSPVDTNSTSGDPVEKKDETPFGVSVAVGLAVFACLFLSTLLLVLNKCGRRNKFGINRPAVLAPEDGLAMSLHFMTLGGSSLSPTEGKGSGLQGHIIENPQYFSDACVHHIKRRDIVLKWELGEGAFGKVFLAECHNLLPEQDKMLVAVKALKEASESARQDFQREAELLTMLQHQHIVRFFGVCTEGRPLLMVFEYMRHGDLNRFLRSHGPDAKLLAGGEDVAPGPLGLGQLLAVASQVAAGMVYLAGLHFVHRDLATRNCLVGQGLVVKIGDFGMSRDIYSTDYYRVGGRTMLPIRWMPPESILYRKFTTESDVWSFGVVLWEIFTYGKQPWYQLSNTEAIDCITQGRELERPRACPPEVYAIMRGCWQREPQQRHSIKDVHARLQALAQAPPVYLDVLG
T6 sequence (Q9UM73 19-1620): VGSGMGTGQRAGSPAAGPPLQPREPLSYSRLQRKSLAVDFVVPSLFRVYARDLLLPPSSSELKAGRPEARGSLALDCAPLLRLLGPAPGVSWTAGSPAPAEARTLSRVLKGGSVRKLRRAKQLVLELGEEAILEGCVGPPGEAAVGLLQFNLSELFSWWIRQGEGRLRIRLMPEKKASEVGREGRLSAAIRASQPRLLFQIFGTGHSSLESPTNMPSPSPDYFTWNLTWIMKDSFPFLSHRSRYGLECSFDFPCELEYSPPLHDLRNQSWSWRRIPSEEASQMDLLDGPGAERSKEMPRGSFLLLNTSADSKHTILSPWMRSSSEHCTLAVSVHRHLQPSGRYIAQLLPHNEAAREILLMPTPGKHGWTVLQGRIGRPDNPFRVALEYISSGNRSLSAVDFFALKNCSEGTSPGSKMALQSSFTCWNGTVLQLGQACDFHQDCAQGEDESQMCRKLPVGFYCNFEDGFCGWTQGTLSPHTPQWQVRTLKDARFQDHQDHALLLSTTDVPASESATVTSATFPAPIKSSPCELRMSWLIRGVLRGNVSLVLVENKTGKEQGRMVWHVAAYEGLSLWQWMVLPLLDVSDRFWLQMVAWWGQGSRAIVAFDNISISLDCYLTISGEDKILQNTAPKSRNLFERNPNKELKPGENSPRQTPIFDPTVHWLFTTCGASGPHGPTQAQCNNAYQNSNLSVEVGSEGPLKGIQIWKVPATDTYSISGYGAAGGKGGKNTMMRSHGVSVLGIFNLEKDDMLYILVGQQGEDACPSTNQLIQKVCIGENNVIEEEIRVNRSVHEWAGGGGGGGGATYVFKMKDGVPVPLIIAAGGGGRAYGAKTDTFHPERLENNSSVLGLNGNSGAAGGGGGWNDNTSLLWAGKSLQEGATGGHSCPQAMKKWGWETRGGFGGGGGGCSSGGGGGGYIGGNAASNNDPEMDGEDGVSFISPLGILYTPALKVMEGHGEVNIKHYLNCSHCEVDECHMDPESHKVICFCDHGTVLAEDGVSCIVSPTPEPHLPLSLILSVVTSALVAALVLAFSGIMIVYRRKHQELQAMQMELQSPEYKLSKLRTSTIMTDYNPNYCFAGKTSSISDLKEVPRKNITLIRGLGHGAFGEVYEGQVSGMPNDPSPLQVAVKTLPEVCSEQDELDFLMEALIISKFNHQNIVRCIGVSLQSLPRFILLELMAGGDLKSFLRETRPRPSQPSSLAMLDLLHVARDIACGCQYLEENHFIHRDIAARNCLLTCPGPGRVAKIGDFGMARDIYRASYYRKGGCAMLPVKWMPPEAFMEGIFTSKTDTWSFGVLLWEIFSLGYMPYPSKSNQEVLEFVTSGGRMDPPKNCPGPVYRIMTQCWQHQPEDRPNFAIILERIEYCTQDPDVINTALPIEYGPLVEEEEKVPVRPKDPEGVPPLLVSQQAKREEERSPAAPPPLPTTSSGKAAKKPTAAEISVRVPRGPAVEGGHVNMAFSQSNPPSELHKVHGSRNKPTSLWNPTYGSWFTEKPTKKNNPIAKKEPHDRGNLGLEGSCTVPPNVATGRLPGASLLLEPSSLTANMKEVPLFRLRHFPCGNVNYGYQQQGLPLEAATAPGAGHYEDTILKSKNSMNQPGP
T4 sequence (P04629 33-796 G667C): as the sequence (P04629 33-796) above, with G635C counted along it
T7 sequence (P04629 whole entry, stated change not applied, the tested form may be a part): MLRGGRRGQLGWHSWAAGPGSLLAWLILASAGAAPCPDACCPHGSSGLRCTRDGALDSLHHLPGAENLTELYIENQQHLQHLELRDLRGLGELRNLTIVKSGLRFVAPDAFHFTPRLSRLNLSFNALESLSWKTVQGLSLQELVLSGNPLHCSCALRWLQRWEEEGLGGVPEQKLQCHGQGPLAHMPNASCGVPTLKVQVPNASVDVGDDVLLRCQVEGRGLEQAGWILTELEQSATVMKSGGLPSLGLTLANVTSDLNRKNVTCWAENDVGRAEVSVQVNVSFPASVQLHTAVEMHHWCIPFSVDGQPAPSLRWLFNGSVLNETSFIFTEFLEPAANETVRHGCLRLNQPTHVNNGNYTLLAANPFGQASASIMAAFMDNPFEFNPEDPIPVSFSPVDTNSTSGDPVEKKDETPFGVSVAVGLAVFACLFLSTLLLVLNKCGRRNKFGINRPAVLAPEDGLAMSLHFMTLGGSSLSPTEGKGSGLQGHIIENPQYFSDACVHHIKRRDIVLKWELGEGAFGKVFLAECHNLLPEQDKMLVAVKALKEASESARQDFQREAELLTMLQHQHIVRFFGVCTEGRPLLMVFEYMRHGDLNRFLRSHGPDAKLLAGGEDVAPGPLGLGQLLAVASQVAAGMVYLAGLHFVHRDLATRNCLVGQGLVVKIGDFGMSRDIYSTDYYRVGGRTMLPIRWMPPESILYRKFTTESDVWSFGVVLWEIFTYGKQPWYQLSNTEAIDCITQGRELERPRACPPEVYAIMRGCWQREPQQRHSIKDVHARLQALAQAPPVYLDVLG
T9 sequence (Q16288 whole entry G623R, the tested form may be a part): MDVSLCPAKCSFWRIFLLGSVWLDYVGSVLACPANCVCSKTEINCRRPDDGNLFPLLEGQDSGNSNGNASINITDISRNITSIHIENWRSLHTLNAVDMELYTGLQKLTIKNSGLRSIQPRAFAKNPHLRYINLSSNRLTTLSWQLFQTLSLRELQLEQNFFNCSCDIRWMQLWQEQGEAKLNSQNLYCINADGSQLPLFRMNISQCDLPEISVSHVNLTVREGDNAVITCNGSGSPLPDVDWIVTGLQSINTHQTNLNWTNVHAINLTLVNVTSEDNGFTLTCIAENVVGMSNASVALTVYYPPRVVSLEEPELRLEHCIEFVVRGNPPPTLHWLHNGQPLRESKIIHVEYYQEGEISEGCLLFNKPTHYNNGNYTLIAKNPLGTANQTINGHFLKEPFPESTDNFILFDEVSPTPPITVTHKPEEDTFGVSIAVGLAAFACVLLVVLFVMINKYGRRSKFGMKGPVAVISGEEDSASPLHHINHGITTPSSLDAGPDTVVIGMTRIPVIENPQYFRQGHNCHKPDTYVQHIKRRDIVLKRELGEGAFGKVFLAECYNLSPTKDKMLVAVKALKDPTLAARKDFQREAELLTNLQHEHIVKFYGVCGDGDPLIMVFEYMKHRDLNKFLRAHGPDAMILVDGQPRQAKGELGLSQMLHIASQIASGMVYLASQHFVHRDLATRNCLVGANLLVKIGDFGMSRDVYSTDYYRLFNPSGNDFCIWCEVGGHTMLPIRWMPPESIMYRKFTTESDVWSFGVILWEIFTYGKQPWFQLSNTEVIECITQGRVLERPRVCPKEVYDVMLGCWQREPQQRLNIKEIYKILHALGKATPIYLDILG
T3 sequence (P04629 33-796 G595R): as the sequence (P04629 33-796) above, with G563R counted along it
T5 sequence (Q16288 32-839): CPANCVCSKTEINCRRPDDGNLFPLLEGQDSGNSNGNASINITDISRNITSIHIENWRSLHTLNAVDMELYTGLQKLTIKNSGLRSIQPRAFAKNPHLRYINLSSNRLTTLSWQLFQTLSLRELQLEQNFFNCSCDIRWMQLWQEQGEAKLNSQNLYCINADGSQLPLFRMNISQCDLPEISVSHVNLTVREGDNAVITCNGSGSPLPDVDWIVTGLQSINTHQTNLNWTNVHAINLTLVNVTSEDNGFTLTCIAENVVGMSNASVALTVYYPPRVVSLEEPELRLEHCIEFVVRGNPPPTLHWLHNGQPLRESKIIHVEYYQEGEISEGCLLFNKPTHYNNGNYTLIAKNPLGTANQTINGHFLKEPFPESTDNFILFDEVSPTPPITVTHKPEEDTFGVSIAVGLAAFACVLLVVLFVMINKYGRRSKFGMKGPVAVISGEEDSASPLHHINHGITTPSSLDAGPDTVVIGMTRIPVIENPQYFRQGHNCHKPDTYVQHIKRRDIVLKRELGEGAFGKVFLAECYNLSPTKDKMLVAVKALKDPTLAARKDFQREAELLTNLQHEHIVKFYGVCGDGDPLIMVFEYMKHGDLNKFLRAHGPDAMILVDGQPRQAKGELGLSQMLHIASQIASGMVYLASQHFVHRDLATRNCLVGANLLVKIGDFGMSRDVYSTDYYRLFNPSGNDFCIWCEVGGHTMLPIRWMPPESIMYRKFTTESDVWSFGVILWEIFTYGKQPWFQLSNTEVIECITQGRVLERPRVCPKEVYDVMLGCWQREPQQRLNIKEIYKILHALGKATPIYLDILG
T8 sequence (P04629 whole entry G595R, the tested form may be a part): as the sequence (P04629 whole entry, stated change not applied, the tested form may be a part) above, with G595R counted along it

IC50 (Ros1) [nM]	IC50 (TrkA) [nM]	IC50 (TrkA-G595R) [nM]	IC50 (TrkA-G667C) [nM]	IC50 (TrkC) [nM]	IC50 (ALK) [nM]	GI50 [1] [nM]	GI50 [2] [nM]	GI50 [3] [nM]	Apparent clearance Cl ([4]; IV dose of 3 mg/kg) [mL/min/kg]	Area under the curve AUC0-last ([4]; PO dose of 10 mL/kg) [µM·h]	Time of peak concentration Tmax ([4]; PO dose of 10 mL/kg) [min]	Cmax ([4]; PO dose of 10 mL/kg) [µM]	Vd [4, 7] [L/kg]	AUC(0-t) [4, 7] [µM·h]	half-life [4, 7] [min]	bioavailability [4, 8] [%]	AUC(0-t) [4, 9] [µM·h]	Cmax [4, 9] [µM]	Tmax [4, 9] [min]	SMILES	other results
0.15	2.66	3.59	3.04	0.06	28.1	4.08	27.9	0.9	10.8	27.967	22.8	7.36	–	–	–	–	–	–	–	O=C1NC2(CC2)COc2ccc(F)cc2[C@H]2CCON2c2ccn3ncc1c3n2 (single isomer, unassigned) [WX003A]	Apparent volume of distribution Vd ([4]; IV dose of 3 mg/kg): 0.81 L/kg; Area under the curve AUC0-last ([4]; IV dose of 3 mg/kg): 12.216 µM·h; Half life T1/2 ([4]; IV dose of 3 mg/kg): 42 min; Bioavailability F % ([4]; PO dose of 10 mL/kg vs IV 3 mg/kg): 69%
–	–	–	–	–	–	–	–	–	–	2.89	22.8	1.55	–	–	–	–	–	–	–	O=C(Nc1cnn2ccc(N3CCC[C@@H]3c3cc(F)ccc3F)nc12)N1CC[C@H](O)C1 [LOXO-101, Larotrectinib, reference compound]	Apparent clearance Cl [5]: 22.7 mL/min/kg; drug concentration in cerebrospinal fluid at 0.5 hour CSF@0.5 h ([5]; PO @ 3 mpk, CSF): 15 nmol/kg; drug concentration in cerebrospinal fluid at 2 hour CSF@2 h ([5]; PO @ 3 mpk, CSF, 2 h): 3 nmol/kg; drug concentration in brain at 0.5 h Brain@0.5 h ([5]; PO @ 3 mpk): 40 nmol/kg; drug concentration in brain at 2 h Brain@2 h ([5]; PO @ 3 mpk, 2 h): 20 nmol/kg; T/C ([6]; high-dose group 60 mg/kg): 34.20%; TGI ([6]; high-dose group 60 mg/kg): 69.73%
–	–	–	–	–	–	–	–	–	–	–	–	–	–	–	–	–	–	–	–	C[C@H]1CNC(=O)c2cnn3ccc(nc23)N[C@H](C)c2cc(F)ccc2O1 [TPX-0005, reference compound]	Apparent clearance Cl [5]: 16.5 mL/min/kg; drug concentration in cerebrospinal fluid at 0.5 hour CSF@0.5 h ([5]; PO @ 3 mpk, CSF): 8 nmol/kg; drug concentration in brain at 0.5 h Brain@0.5 h ([5]; PO @ 3 mpk): 50 nmol/kg; drug concentration in brain at 2 h Brain@2 h ([5]; PO @ 3 mpk, 2 h): 41 nmol/kg; T/C ([6]; dose of 3 mg/kg): 16.80%; TGI ([6]; dose of 3 mg/kg): 87.46%
0.94	14.3	38.5	42	0.41	109	7.69	14.5	2.1	10.4	–	–	–	0.75	12.5	44.4	72	29.6	10.5	30	C[C@@H]1COc2ncc(F)cc2[C@H]2CCON2c2ccn3ncc(c3n2)C(=O)N1 [WX004A]	–
0.59	9.84	4.74	37.5	0.16	79.2	23.5	19.4	5.4	19.9	–	–	–	1.01	6.1	33.6	72	14.4	8.78	15	O=C1NC2(COC2)COc2ncc(F)cc2[C@H]2CCON2c2ccn3ncc1c3n2 [WX006A]	–
0.82	13.4	37.1	26.3	0.3	119	–	–	–	17.8	–	–	–	0.74	7.34	42.6	111	26.7	10.8	37.8	C[C@@H]1COc2ccc(F)cc2[C@H]2CCON2c2ccn3ncc(c3n2)C(=O)N1 [WX017A]	–
